Results published in patent publication US20240092784A1, “CONDENSED HETEROCYCLIC COMPOUND” (NISSAN CHEMICAL CORPORATION, priority 2020, published 2024).
Counter-ions that a name gives are not always drawn.

Molecular target: human SPR (Homo sapiens (Human), UniProt P35270)
Assay: Evaluation Example 2: Measurement of human SPR inhibitory activity (seven concentrations, sepiapterin absorbance at 420 nm)
Assay type: biochemical
Conditions: Evaluation Example 2, seven concentrations 0.14 nM to 100 nM, 240 minutes at room temperature, read-out: IC50
Outline: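 Reactions ran 240 min at room temperature in 100 mM Tris-HCl pH 7.5 with 0.01% BSA. They contained tag-cleaved, E. coli-expressed full-length human SPR (diluted to 150 ng/mL), seven compound concentrations from 0.14 to 100 nM, and sepiapterin/NADPH added as a 120 μM/160 μM solution. Inhibition was calculated from sepiapterin absorbance at 420 nm.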

human SPR, sequence (P35270 whole entry): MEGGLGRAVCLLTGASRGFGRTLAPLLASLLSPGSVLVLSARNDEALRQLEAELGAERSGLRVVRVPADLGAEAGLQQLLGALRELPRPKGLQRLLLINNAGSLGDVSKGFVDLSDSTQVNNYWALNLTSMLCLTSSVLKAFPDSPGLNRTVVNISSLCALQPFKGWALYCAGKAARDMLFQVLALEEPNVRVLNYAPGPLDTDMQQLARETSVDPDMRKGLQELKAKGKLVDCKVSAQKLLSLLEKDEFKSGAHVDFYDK

SMILES | IC50 [pM]
CC(C)(C)Cn1c(=O)c(C(=O)NC2CC2)c(O)n2nc3c(c12)CCC(=O)N3 [Synthesis Example 403, N-Cyclopropyl-4-hydroxy-1-neopentyl-2,8-dioxo-1,2,7,8,9,10-hexahydropyrido[2′,3′:3,4]pyrazolo[1,5-a]pyrimidine-3-carboxamide] | 610
CC(C)Cn1c(=O)c(C(=O)NC2CC2)c(O)n2nc3c(c12)CCC(=O)N3 [Synthesis Example 404, N-Cyclopropyl-4-hydroxy-1-isobutyl-2,8-dioxo-1,2,7,8,9,10-hexahydropyrido[2′,3′:3,4]pyrazolo[1,5-a]pyrimidine-3-carboxamide] | 630
CC(C)(C)Cn1c(=O)c(C(=O)NC2CC2)c(O)n2nc3c(c12)CN(C1CCOCC1)C(=O)N3 [Synthesis Example 405, N-Cyclopropyl-8-hydroxy-5-neopentyl-2,6-dioxo-3-(tetrahydro-2H-pyran-4-yl)-1,2,3,4,5,6-hexahydropyrazolo[1,5-a:3,4-d′]dipyrimidine-7-carboxamide] | 770
CN1Cc2c(nn3c(O)c(C(=O)NC4CC4)c(=O)n(CC(C)(C)C)c23)NC1=O [Synthesis Example 406, N-Cyclopropyl-8-hydroxy-3-methyl-5-neopentyl-2,6-dioxo-1,2,3,4,5,6-hexahydropyrazolo[1,5-a:3,4-d′]dipyrimidine-7-carboxamide] | 930
CC(C)(C)Cn1c(=O)c(C(=O)NC2CC2)c(O)n2nc3c(c12)CN(C1CCC(F)(F)CC1)C(=O)N3 [Synthesis Example 407, N-Cyclopropyl-3-(4,4-difluorocyclohexyl)-8-hydroxy-5-neopentyl-2,6-dioxo-1,2,3,4,5,6-hexahydropyrazolo[1,5-a:3,4-d′]dipyrimidine-7-carboxamide] | 1230
CC(C)(C)Cn1c(=O)c(C(=O)NC2CC2)c(O)n2nc3c(c12)CN(C1CC1)C(=O)N3 [Synthesis Example 408, N,3-Dicyclopropyl-8-hydroxy-5-neopentyl-2,6-dioxo-1,2,3,4,5,6-hexahydropyrazolo[1,5-a:3,4-d′]dipyrimidine-7-carboxamide] | 830
CC(C)(C)Cn1c(=O)c(C(=O)NC2CC2)c(O)n2nc3c(c12)CN(CC1CCOCC1)C(=O)N3 [Synthesis Example 409, N-Cyclopropyl-8-hydroxy-5-neopentyl-2,6-dioxo-3-((tetrahydro-2H-pyran-4-yl)methyl)-1,2,3,4,5,6-hexahydropyrazolo[1,5-a:3,4-d′]dipyrimidine-7-carboxamide] | 750
CC(C)(C)Cn1c(=O)c(C(=O)NC2CC2)c(O)n2nc3c(c12)CN(C1CC(F)(F)C1)C(=O)N3 [Synthesis Example 410, N-Cyclopropyl-3-(3,3-difluorocyclobutyl)-8-hydroxy-5-neopentyl-2,6-dioxo-1,2,3,4,5,6-hexahydropyrazolo[1,5-a:3,4-d′]dipyrimidine-7-carboxamide] | 1500
CC(C)(C)Cn1c(=O)c(C(=O)NC2CC2)c(O)n2nc(N)c(/C=C/C(=O)N3CCOCC3)c12 [Synthesis Example 411, (E)-2-Amino-N-cyclopropyl-7-hydroxy-3-(3-morpholino-3-oxoprop-1-en-1-yl)-4-neopentyl-5-oxo-4,5-dihydropyrazolo[1,5-a]pyrimidine-6-carboxamide] | 650
CCOC(=O)/C=C/c1c(NC(=O)OC(C)(C)C)nn2c(O)c(C(=O)NC3CC3)c(=O)n(CC(C)C)c12 [Synthesis Example 412, Ethyl (E)-3-(2-((tert-butoxycarbonyl)amino)-6-(cyclopropylcarbamoyl)-7-hydroxy-4-isobutyl-5-oxo-4,5-dihydropyrazolo[1,5-a]pyrimidin-3-yl)acrylate] | 1850
CC(C)Cn1c(=O)c(C(=O)NC2CC2)c(O)n2nc(NC(=O)OC(C)(C)C)c(/C=C/C(=O)N3CCC(F)(F)CC3)c12 [Synthesis Example 413, Tert-butyl (E)-(6-(cyclopropylcarbamoyl)-3-(3-(4,4-difluoropiperidin-1-yl)-3-oxoprop-1-en-1-yl)-7-hydroxy-4-isobutyl-5-oxo-4,5-dihydropyrazolo[1,5-a]pyrimidin-2-yl)carbamate] | 1320
CC(C)Cn1c(=O)c(C(=O)NC2CC2)c(O)n2nc(N)c(/C=C/C(=O)N3CCC(F)(F)CC3)c12 [Synthesis Example 414, (E)-2-Amino-N-cyclopropyl-3-(3-(4,4-difluoropiperidin-1-yl)-3-oxoprop-1-en-1-yl)-7-hydroxy-4-isobutyl-5-oxo-4,5-dihydropyrazolo[1,5-a]pyrimidine-6-carboxamide hydrochloride] | 700
CC(C)Cn1c(=O)c(C(=O)NC2CC2)c(O)n2nc(NC(=O)OC(C)(C)C)c(/C=C/C(=O)N3CCOCC3)c12 [Synthesis Example 415, Tert-butyl (E)-(6-(cyclopropylcarbamoyl)-7-hydroxy-4-isobutyl-3-(3-morpholino-3-oxoprop-1-en-1-yl)-5-oxo-4,5-dihydropyrazolo[1,5-a]pyrimidin-2-yl)carbamate] | 740
CC(C)Cn1c(=O)c(C(=O)NC2CC2)c(O)n2nc(N)c(/C=C/C(=O)N3CCOCC3)c12 [Synthesis Example 416, (E)-2-Amino-N-cyclopropyl-7-hydroxy-4-isobutyl-3-(3-morpholino-3-oxoprop-1-en-1-yl)-5-oxo-4,5-dihydropyrazolo[1,5-a]pyrimidine-6-carboxamide] | 590
CC(C)Cn1c(=O)c(C(=O)NC2CC2)c(O)n2nc(N)c(/C=C/C(=O)N3CCOC[C@@H]3C)c12 [Synthesis Example 417, (S,E)-2-Amino-N-cyclopropyl-7-hydroxy-4-isobutyl-3-(3-(3-methylmorpholino)-3-oxoprop-1-en-1-yl)-5-oxo-4,5-dihydropyrazolo[1,5-a]pyrimidine-6-carboxamide hydrochloride] | 590
CC(C)Cn1c(=O)c(C(=O)NC2CC2)c(O)n2nc(N)c(/C=C/C(=O)N3CCOC[C@H]3C)c12 [Synthesis Example 418, (R,E)-2-Amino-N-cyclopropyl-7-hydroxy-4-isobutyl-3-(3-(3-methylmorpholino)-3-oxoprop-1-en-1-yl)-5-oxo-4,5-dihydropyrazolo[1,5-a]pyrimidine-6-carboxamide hydrochloride] | 610
Nc1nn2c(O)c(C(=O)NC3CC3)c(=O)n(CC3CC3)c2c1/C=C/C(=O)N1CCOCC1 [Synthesis Example 419, (E)-2-Amino-N-cyclopropyl-4-(cyclopropylmethyl)-7-hydroxy-3-(3-morpholino-3-oxoprop-1-en-1-yl)-5-oxo-4,5-dihydropyrazolo[1,5-a]pyrimidine-6-carboxamide hydrochloride] | 830
Nc1nn2c(O)c(C(=O)NC3CC3)c(=O)n(CC3CC3)c2c1/C=C/C(=O)N1CCC(F)(F)CC1 [Synthesis Example 420, (E)-2-Amino-N-cyclopropyl-4-(cyclopropylmethyl)-3-(3-(4,4-difluoropiperidin-1-yl)-3-oxoprop-1-en-1-yl)-7-hydroxy-5-oxo-4,5-dihydropyrazolo[1,5-a]pyrimidine-6-carboxamide hydrochloride] | 750
CC(C)Cn1c(=O)c(C(=O)N[C@@H](C)C(F)(F)F)c(O)n2nc(N)c(/C=C/C(=O)N3CCC(F)(F)CC3)c12 [Synthesis Example 421, (S,E)-2-Amino-3-(3-(4,4-difluoropiperidin-1-yl)-3-oxoprop-1-en-1-yl)-7-hydroxy-4-isobutyl-5-oxo-N-(1,1,1-trifluoropropan-2-yl)-4,5-dihydropyrazolo[1,5-a]pyrimidine-6-carboxamide hydrochloride] | 770
